The values that follow come from patent US8557580B2, “Methods and compositions for the differentiation of stem cells” (Cellular Dynamics International, Inc., priority 2009, dated 2013).

This assay has as its system Individualized ES cells. Kind of assay: Attachment and survival of individualized ES cells seeded in TeSR medium with or without ROCK inhibitor. Particulars: H1152 at 1 uM, fibronectin-coated surfaces. The class given is cell-based, human. The protocol: Variations in input ES colony size and colony density can lead to substantial variability in performance of any differentiation method. Therefore, the dispersion of ES colonies into individual cells prior to initiating differentiation was investigated. Cultured populations of ES cells were dispersed or individualized with trypsin or TrypLE. Dispersed ES cells were then seeded in TeSR medium, with or without a ROCK inhibitor (H1152, 1 μM). Differentiation procedures described herein were performed with the individualized cultures.
Furthermore, if the seeding density is too low (less than approximately 1×10^4 cells per cm^2), cells detach and lose viability even in the presence of a ROCK inhibitor. If seeded at too high a cell density (greater than 5×10^4 cells per cm^2), cells remain attached, but fail to differentiate into hematoendothelial progenitors. The optimum seeding density between these limits is dependent on the method used for cell expansion, the passage number, and the overall condition of the ES cells.

Structures are written as SMILES.

Turning to `Cc1cncc2cccc(S(=O)(=O)N3CCCNC[C@@H]3C)c12` [H1152], the “attachment and survival of individualized ES cells” value was “do not attach and survive without the addition of a survival factor”.
